Assay results taken from patent US20210163489A1, “PYRAZOLOPYRIMIDINE DERIVATIVES AND THE COMPOSITIONS AND METHODS OF TREATMENT REGARDING THE SAME” (NysnoBio Ireland DAC, priority 2016, published 2021).
Several values for one entry are separate records, joined by “and”; a condition that tells them apart may be missing. Equal values may be shown once.

Experiments:
[1] = target: T1, Parkin ligase (Homo sapiens, UniProt O60260); test: Activity-based probe assay using an ubiquitin vinyl sulfone probe (TR-FRET); assay type: biochemical; conditions: for EC50: activation of heat activated Parkin, HA-Ub-VS probe, read-out: Probe Assay EC50 (μM) [Example 2]
T1 construct: Enzyme: Parkin-His tagged 203 μM (10.5 mg/ml)
T1 sequence (O60260 1-465): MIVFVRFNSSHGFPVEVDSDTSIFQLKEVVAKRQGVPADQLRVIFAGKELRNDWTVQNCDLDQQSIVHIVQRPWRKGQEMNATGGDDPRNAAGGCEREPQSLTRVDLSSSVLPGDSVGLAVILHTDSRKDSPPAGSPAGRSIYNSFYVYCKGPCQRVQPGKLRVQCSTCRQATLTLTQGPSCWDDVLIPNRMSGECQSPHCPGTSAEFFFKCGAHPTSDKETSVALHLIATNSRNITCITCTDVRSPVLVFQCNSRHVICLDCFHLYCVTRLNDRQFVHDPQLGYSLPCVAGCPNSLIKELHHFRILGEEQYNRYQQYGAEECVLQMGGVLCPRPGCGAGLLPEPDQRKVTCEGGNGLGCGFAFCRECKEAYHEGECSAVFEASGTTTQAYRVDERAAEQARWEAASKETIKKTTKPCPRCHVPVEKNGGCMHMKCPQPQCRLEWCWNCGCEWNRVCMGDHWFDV
Protocol: An Ubiquitin vinyl sulfone probe can be used that irreversibly binds to the active site cysteine of Parkin ligase. Covalent attachment of the probe to the Parkin can be monitored by TR-FRET. Candidate activator compounds can be identified by increasing the activity of Parkin ligase due to an increase in TR-FRET signal. Screening for activating compounds can be distinguished from the controls as follows:
100% activation signal=Heat activated Parkin+100 nM control activator in DMSO. 0% activation signal=Heat activated Parkin+DMSO only. Parkin activators can be identified by an increase of the 0% activation signal TR-FRET signal.
• Assay Plate: White 384 well plate (Corning 3572) • Enzyme: Parkin-His tagged 203 μM (10.5 mg/ml) • Probe: Ubiquitin vinyl-sulfone (HA-Ub-VS Boston Biochem U-212) • DMSO: DMSO (Sigma cat # D4540-100ML) • Reaction Buffer: 50 mM HEPES (pH 8.5), 150 mM NaCl, 0.01% Tween 20, 0.1% BSA • Detection Buffer: 50 mM HEPES (pH 8.5), 150 mM NaCl, 0.01% Tween 20, 0.1% BSA, 800 mM KF • Detection Reagent A: 2.6 nM Anti-6HIS-Eu cryptate and 40 nM Anti-HA-XL665 in detection buffer • Eu cryptate: Anti-6HIS-Eu cryptate (CisBio 61HISKLA) • XL665: Anti-HA-XL665 (CisBio 610HAXLA) Enzyme Reaction (15 min Pre Incubation Parkin with Activator Only) • Parkin: 40 nM • HA-Ub-VS Probe: 70 nM • Activator/DMSO: 2× Activator/2% DMSO • Reaction time: 60 minutes • Temperature: 22° C. • Total volume: 10 μl reaction
• Take 10 μl of Enzyme Reaction above and add 10 μl detection Reagent A under the following conditions: • Reaction time: 60 minutes • Temperature: 22° C. • Total volume: 20 μl
Assay procedure (Using HP D-300 compound dispenser and Bravo for the operation):
1) Heat activate Parkin in reaction buffer (500 μl/1.5 ml tube: Eppendorf Thermomixer 5 minutes, 400 rpm at 58° C. and put on ice until needed). 2) Load assay plate wells with 4.8 μl 84.5 nM Parkin in reaction buffer by use of Bravo. 3) Deliver 0.2 μl 200× activator candidates in DMSO by use of HP D-300 compound dispenser. Highest 200× concentration=20 μm and then twofold dilutions. 4) Spin 1000 rpm, 2 minutes, at room temp. 5) Incubate plate for 15 minutes at room temp. 6) Add 5 μl 140 nM HA-Ub-VS Probe in reaction buffer by use of Bravo. 7) Spin 1000 rpm, 2 minutes, at room temp. 8) Incubate plate for 60 minutes at room temp. 9) Add 10 μl 2.6 nM Anti-6HIS-Eu cryptate and 40 nM Anti-HA-XL665 in detection buffer. 10) Spin 1000 rpm, 2 minutes, at room temp. 11) Incubate plate for 60 minutes at room temp. 12) Read plates on Perkin Elmer Envision instrument with the following parameters:
LANCE dual laser protocol loaded into the Envision® software
Top Mirror: LANCE/DELFIA Duel/Bias (Bar code 446) Emission Filter: APC 665 EM (Bar code 205) 2nd Emission Filter: Europium 615 EM (Bar code 203) Read […] (channel 1) and 615 nm (channel 2) wavelengths on Envision®
Data Analysis: The Data can be read in CSV files. There are two tables in those CSV files, which are the values of 655 nm (channel 1) and 615 nm (channel 2) wavelengths respectively. The data is converted to an HTRF Ratio=(Channel 1/Channel 2)*10,000
The average of all the 0 uM controls (DMSO only)=BKGD (Background—0% activation). Subtract BKGD from each HTRF Ratio value=HTRF-BKGD. The average of all the […] 100 nM control activator in DMSO controls=Max (100% activation). The following equation is then used to calculate % Activation for each well/candidate as follows: % Activation=(HTRF−BKGD/Max)*100.
Graphpad Prisim was used with Transform X values: X=Log(X) and nonlinear regression (dose-response-stimulation): Log(agonist) vs Response—variable slope (four parameters) with constrains set to Bottom=0 and Top=100.

[2] = Metabolic stability in rat liver microsomes (RLM); assay type: in vitro ADME; conditions: rat, liver microsomes, pH 7.4, 1 μM compound, 1.0 mg/mL microsome, NADPH; read-out: RLM t1/2
Protocol: Compounds were also tested for metabolic stability in both rat liver microsomes (RLM) and human liver microsomes (HLM) and their half-life calculated (See Table 6). The assay was performed as follows. The total volume for each incubation was 250 μL. A 100 μM DMSO solution of compound (diluted from 10 mM stock solution) was spiked into 50 mM KH2PO4 (pH 7.4) buffer containing liver microsome at a concentration of 1.0 mg/mL. The reaction was initiated by the addition of 50 μL of 1 mM NADPH. The final concentration of each compound was 1 μM (1% DMSO). The positive controls, phenacetin for CYP1A2, diclofenac for CYP2C9, omeprazole for CYP2C19, dextromethorphan for CYP2D6 and midazolam for CYP3A4 were added to a separate tube with the final substrate concentrations of 1 μM (1% DMSO) for evaluating the enzyme activities in the liver microsomes. At 0, 15, 30 and 60 min, an aliquot of 15 μL reaction mixtures were removed and 200 μL of methanol (with internal standard of 25 ng/mL propranolol) was added to quench the reaction. The resulting mixture was centrifuged and supernatant was used for LC-MS/MS analysis.
The signals for each compound, or the metabolites for the probe substrates and the internal standard were integrated and the peak area ratios to internal standard were generated. Percent parent remaining at a specified timepoint was calculated based on the peak area ratios at time 0 (as 100%) for in vitro metabolic stability studies in liver microsome and hepatocyte. The observed rate constant (kobs) for the metabolism of substrates was calculated by plotting the natural log of percentage substrate remaining versus time of incubation with the slope being kobs. The half-life (T1/2) was calculated according to the following equation: […]

Compound	EC50 [1]	half-life at 1 μM [2] [min]	Parkin Ligase reaction with the Activity-based Ubiquitin vinyl sulfone probe [1]
Cc1ccc(-c2cnn3c(S)c4c(nc23)CN(C)CC4)cc1 [Compound S3]	6 µM	> 500	–
Cc1nc2c(-c3ccccc3)cnn2c(S)c1Cc1ccccc1 [Compound CC, 6-benzyl-5-methyl-3-phenyl-pyrazolo[1,5-a]pyrimidin-7-thiol]	5.8 µM	55.9	–
Cc1nn2c(S)c(CCc3ccccc3)cnc2c1-c1ccccc1 [Compound E3]	4 µM	3	–
Cc1cc(C)c2c(n1)nn1c(S)cc(C)nc21 [Compound E]	4 µM	55.9	–
Cc1cc(S)n2ncc(-c3cccc(N(C)C)c3)c2n1 [UU]	10.7 µM	4.2	–
Cc1nn2c(S)c(CC(C)C)cnc2c1-c1ccccc1 [Compound G3]	15 µM	22	–
Cc1cc(S)n2ncc(-c3ccc(F)cc3)c2n1 [Compound L, 3-(4-fluorophenyl)-5-methylpyrazolo[1,5-a]pyrimidine-7-thiol]	18 µM	68	increases
Cc1nc2c(-c3ccccc3)c(C)nn2c(S)c1Cc1ccccc1 [Compound A, 6-benzyl-2,5-dimethyl-3-phenylpyrazolo[1,5-a]pyrimidine-7-thiol]	0.4 µM and 3.1 µM and 0.7 µM	84.5	increases
Cc1nn2c(S)c(C)c(Cc3ccccc3)nc2c1-c1ccccc1 [ZZ]	0.5 µM	44	–
COc1ccc(-c2cnn3c(S)cc(C)nc23)cc1 [SS]	8.9 µM	12.9	–
Cc1nc2c(-c3ccccc3)cnn2c(O)c1Cc1ccccc1 [Compound U, 6-benzyl-5-methyl-3-phenyl-pyrazolo[1,5-a]pyrimidin-7-ol]	8.73 µM	29	–
Cc1nn2c(S)c3c(nc2c1-c1ccccc1)CN(C)CC3 [Compound C3]	27 µM	277	–
Cc1cc(S)c2ncc(-c3ccc(F)cc3)n2n1 [Compound F3]	3 µM	67	–
Cc1nc2c(-c3cccnc3)c(C)nn2c(S)c1Cc1ccccc1 [Compound D3]	24 µM	63	–
Cc1nc2c(-c3ccccc3)c(C)nn2c(S)c1Cc1ccncc1 [Compound AA, 2,5-dimethyl-3-phenyl-6-(4-pyridylmethyl)pyrazolo[1,5-a]pyrimidine-7-thiol]	10.9 µM	112	–
Cc1ccc(-c2cnn3c(S)cc(C)nc23)cc1 [TT]	6.8 µM	8.1	–
